Series [1] in a line: Inhibition of human ABCB1 expressed in KBV1 cells assessed as potentiation of doxorubicin-induced cytotoxicity by measuring doxorubicin IC50 at 1000 nM after 72 hrs by MTT assay (Rvb = 5.07 +/- 0.19 uM). (In general: Tetrazolium dyes change colour on reduction, which living cells bring about.)
A short description of series [2]: Inhibition of human ABCB1 expressed in KBV1 cells assessed as potentiation of vincristine-induced cytotoxicity by measuring vincristine IC50 at 1000 nM after 72 hrs by MTT assay (Rvb = 277.68 +/- 56.61 nM).
The nature of series [3]: Inhibition of human ABCB1 expressed in NCI-ADR-RES cells assessed as potentiation of doxorubicin-induced cytotoxicity by measuring doxorubicin IC50 at 1000 nM after 72 hrs by MTT assay (Rvb = 5.54 +/- 0.60 uM).
The nature of series [4]: Inhibition of human ABCB1 transfected in HEK293 cells assessed as potentiation of doxorubicin-induced cytotoxicity by measuring doxorubicin IC50 at 1000 nM after 72 hrs by CCK8 assay (Rvb = 504.65 +/- 44.94 nM).
A short description of series [5]: Inhibition of human ABCB1 expressed in NCI-ADR-RES cells assessed as potentiation of colchicine-induced cytotoxicity by measuring colchicine IC50 at 1000 nM after 72 hrs by MTT assay (Rvb = 1607.50 +/- 497.42 nM).
The nature of series [6]: Inhibition of human ABCB1 expressed in NCI-ADR-RES cells assessed as potentiation of vincristine-induced cytotoxicity by measuring vincristine IC50 at 1000 nM after 72 hrs by MTT assay (Rvb = 3714.80 +/- 383.58 nM).
Series [7] is described as follows: Inhibition of human ABCB1 expressed in KBV1 cells assessed as potentiation of doxorubicin-induced cytotoxicity by measuring doxorubicin IC50 at 50 nM after 72 hrs by MTT assay (Rvb = 5.07 +/- 0.19 uM).
The nature of series [8]: Inhibition of human ABCB1 expressed in KBV1 cells assessed as potentiation of doxorubicin-induced cytotoxicity by measuring doxorubicin IC50 at 200 nM after 72 hrs by MTT assay (Rvb = 5.07 +/- 0.19 uM).
Series [9] can be described thus: Inhibition of human ABCB1 expressed in KBV1 cells assessed as potentiation of doxorubicin-induced cytotoxicity by measuring doxorubicin IC50 at 100 nM after 72 hrs by MTT assay (Rvb = 5.07 +/- 0.19 uM).
Series [10] can be described thus: Inhibition of human ABCB1 expressed in KBV1 cells assessed as potentiation of doxorubicin-induced cytotoxicity by measuring doxorubicin IC50 at 500 nM after 72 hrs by MTT assay (Rvb = 5.07 +/- 0.19 uM).
The nature of series [11]: Inhibition of human ABCB1 expressed in KBV1 cells assessed as potentiation of colchicine-induced cytotoxicity by measuring colchicine IC50 at 500 nM after 72 hrs by MTT assay (Rvb = 487.57 +/- 30.54 nM).
Series [12] can be described thus: Inhibition of human ABCB1 expressed in KBV1 cells assessed as potentiation of colchicine-induced cytotoxicity by measuring colchicine IC50 at 200 nM after 72 hrs by MTT assay (Rvb = 487.57 +/- 30.54 nM).
The nature of series [13]: Inhibition of human ABCC1 transfected in HEK293 cells assessed as potentiation of etoposide-induced cytotoxicity by measuring etoposide IC50 at 500 nM after 72 hrs by CCK8 assay (Rvb = 38.54 +/- 5.62 nM).
Series [14] in a line: Inhibition of human ABCB1 expressed in KBV1 cells assessed as potentiation of colchicine-induced cytotoxicity by measuring colchicine IC50 at 100 nM after 72 hrs by MTT assay (Rvb = 487.57 +/- 30.54 nM).
A short description of series [15]: Inhibition of human ABCB1 expressed in KBV1 cells assessed as potentiation of vincristine-induced cytotoxicity by measuring vincristine IC50 at 50 nM after 72 hrs by MTT assay (Rvb = 277.68 +/- 56.61 nM).
Series [16] in a line: Inhibition of human ABCB1 expressed in KBV1 cells assessed as potentiation of vincristine-induced cytotoxicity by measuring vincristine IC50 at 100 nM after 72 hrs by MTT assay (Rvb = 277.68 +/- 56.61 nM).
A short description of series [17]: Inhibition of human ABCB1 expressed in KBV1 cells assessed as potentiation of vincristine-induced cytotoxicity by measuring vincristine IC50 at 200 nM after 72 hrs by MTT assay (Rvb = 277.68 +/- 56.61 nM).
The nature of series [18]: Inhibition of human ABCB1 expressed in KBV1 cells assessed as potentiation of vincristine-induced cytotoxicity by measuring vincristine IC50 at 500 nM after 72 hrs by MTT assay (Rvb = 277.68 +/- 56.61 nM).
Series [19] in a line: Inhibition of human ABCB1 expressed in NCI-ADR-RES cells assessed as potentiation of doxorubicin-induced cytotoxicity by measuring doxorubicin IC50 at 50 nM after 72 hrs by MTT assay (Rvb = 5.54 +/- 0.60 uM).
Series [20] is described as follows: Inhibition of human ABCB1 expressed in NCI-ADR-RES cells assessed as potentiation of doxorubicin-induced cytotoxicity by measuring doxorubicin IC50 at 500 nM after 72 hrs by MTT assay (Rvb = 5.54 +/- 0.60 uM).
A short description of series [21]: Inhibition of human ABCB1 expressed in NCI-ADR-RES cells assessed as potentiation of doxorubicin-induced cytotoxicity by measuring doxorubicin IC50 at 100 nM after 72 hrs by MTT assay (Rvb = 5.54 +/- 0.60 uM).
A short description of series [22]: Inhibition of human ABCB1 transfected in HEK293 cells assessed as potentiation of doxorubicin-induced cytotoxicity by measuring doxorubicin IC50 at 50 nM after 72 hrs by CCK8 assay (Rvb = 504.65 +/- 44.94 nM).
Series [23] is described as follows: Inhibition of human ABCB1 transfected in HEK293 cells assessed as potentiation of doxorubicin-induced cytotoxicity by measuring doxorubicin IC50 at 100 nM after 72 hrs by CCK8 assay (Rvb = 504.65 +/- 44.94 nM).
Series [24] can be described thus: Inhibition of human ABCB1 expressed in NCI-ADR-RES cells assessed as potentiation of doxorubicin-induced cytotoxicity by measuring doxorubicin IC50 at 200 nM after 72 hrs by MTT assay (Rvb = 5.54 +/- 0.60 uM).
Series [25] is described as follows: Inhibition of human ABCB1 transfected in HEK293 cells assessed as potentiation of doxorubicin-induced cytotoxicity by measuring doxorubicin IC50 at 200 nM after 72 hrs by CCK8 assay (Rvb = 504.65 +/- 44.94 nM).
Series [26] is described as follows: Inhibition of human ABCB1 expressed in NCI-ADR-RES cells assessed as potentiation of colchicine-induced cytotoxicity by measuring colchicine IC50 at 50 nM after 72 hrs by MTT assay (Rvb = 1607.50 +/- 497.42 nM).
The nature of series [27]: Inhibition of human ABCB1 expressed in NCI-ADR-RES cells assessed as potentiation of colchicine-induced cytotoxicity by measuring colchicine IC50 at 100 nM after 72 hrs by MTT assay (Rvb = 1607.50 +/- 497.42 nM).
Series [28] is described as follows: Inhibition of human ABCB1 expressed in NCI-ADR-RES cells assessed as potentiation of colchicine-induced cytotoxicity by measuring colchicine IC50 at 500 nM after 72 hrs by MTT assay (Rvb = 1607.50 +/- 497.42 nM).
Series [29] is described as follows: Inhibition of human ABCB1 expressed in NCI-ADR-RES cells assessed as potentiation of colchicine-induced cytotoxicity by measuring colchicine IC50 at 200 nM after 72 hrs by MTT assay (Rvb = 1607.50 +/- 497.42 nM).
Series [30] in a line: Inhibition of human ABCB1 expressed in NCI-ADR-RES cells assessed as potentiation of vincristine-induced cytotoxicity by measuring vincristine IC50 at 50 nM after 72 hrs by MTT assay (Rvb = 3714.80 +/- 383.58 nM).
A short description of series [31]: Inhibition of human ABCB1 expressed in NCI-ADR-RES cells assessed as potentiation of vincristine-induced cytotoxicity by measuring vincristine IC50 at 100 nM after 72 hrs by MTT assay (Rvb = 3714.80 +/- 383.58 nM).
The nature of series [32]: Inhibition of human ABCB1 expressed in NCI-ADR-RES cells assessed as potentiation of vincristine-induced cytotoxicity by measuring vincristine IC50 at 500 nM after 72 hrs by MTT assay (Rvb = 3714.80 +/- 383.58 nM).
Series [33] can be described thus: Inhibition of human ABCB1 expressed in NCI-ADR-RES cells assessed as potentiation of vincristine-induced cytotoxicity by measuring vincristine IC50 at 200 nM after 72 hrs by MTT assay (Rvb = 3714.80 +/- 383.58 nM).

For orientation: IC50 means the concentration that gives 50% inhibition.

With `COc1cc2c(cc1OC)CN(CCc1ccc(NC(=O)c3cc(OC)c(OC)cc3NC(=O)c3cnc4ccccc4c3)cc1)CC2`, the half-maximal inhibitory concentration (IC50) in [1] was found to be 70 nM; in series [2], 0.66 nM; in [3], 240 nM; in [4], 25 nM; in [5] it was 25 nM; in series [6] it was 19 nM.
Take `COc1ccc2cc1Oc1ccc(cc1)C[C@H]1c3cc(c(OC)cc3CCN1C)Oc1c(OC)c(OC)c(OC)c3c1[C@H](C2)N(C)CC3` [CHEBI:5677]: the IC50 in [7] stood at 1420 nM; in series [8], 280 nM; in series [9], 700 nM; in series [10], 100 nM; in [11], 32 nM; in series [12] it was 118 nM. For the same compound, the IC50 is 38300 nM in series [13]; 188 nM in series [14]; 205 nM in [15]; 100 nM in [16]; 21 nM in series [17]; 1.6 nM in series [18]. The IC50 is 2810 nM in series [19]; 230 nM in [20]; 1310 nM in series [21]; 109 nM in series [22]; 76 nM in [23]; 550 nM in series [24]. In addition, the IC50 in series [25] amounted to 44 nM; in series [26] it was 1010 nM; in series [27], 571 nM; in series [28], 79 nM; in [29], 224 nM; in [30] it was 3220 nM. Also, the figures for the concentration for half-maximal inhibition (IC50) in series [31], in series [32] and in series [33] were 2660 nM, 115 nM and 970 nM, respectively.

Values taken from BindingDB's records for doi:10.1021/acs.jnatprod.6b00597 (Chang Gung Memorial Hospital, 2016).
